Measured values taken from patent publication US20230339880A1, “COMPOSITIONS OF AJULEMIC ACID AND USES THEREOF” (priority 2019, published 2023).

Assays:
Assay type in all cases: physicochemical
[1] = Thermodynamic solubility studies; conditions: for Average Concentration: triplicate average; for Form by XRPD Dry: residual solids dried under vacuum; for Form by XRPD Wet: residual solids
Description: For each experiment, approximately 50 mg of either crystal form A or crystal form B was weighed into a 20 mL scintillation vial. 15 mL of the appropriate solvent system was added and the solution was stirred at 37° C. At approximately 7.5 h, a portion of the mother liquor was transferred to a pre-heated vial (at 37° C.) via syringe filter (0.45 μm). An aliquot of slurry was removed, and the solids in the aliquot were isolated by centrifugation and plated for XRPD analysis. The plated solids were stored in freezer for 12 h prior to analysis.
The remaining solution was further stirred at 37° C. overnight (approximately 25 h total stirring time). Stirring was then terminated and the solids were allowed to settle. After approximately 0.75 h, a portion of the mother liquor was transferred to a pre-heated vial (at 37° C.) via syringe filter (0.45 μm). The residual solids were isolated by centrifugation and analyzed by XRPD.
For “dry” analysis, the XRPD plates were dried under vacuum at ambient temperature for approximately 23 h and re-analyzed.

[2] = Dynamic Vapor Sorption (DVS)
Description: Approximately 10-20 mg of sample was placed into a mesh vapor sorption balance pan and loaded into a Surface Measurement Systems DVS Intrinsic dynamic vapor sorption balance. The material was subjected to a ramping profile from 40 to 90% relative humidity (RH) at 10% increments, maintaining the sample at each step until a stable weight had been achieved (dm/dt 0.004%, minimum step length 30 minutes, maximum step length 500 minutes) at 25° C. After completion of the sorption cycle, the sample was dried using the same procedure to 0% RH and then a second sorption cycle back to 40% RH was carried out. Two cycles were performed. The weight change during the sorption/desorption cycles were plotted, allowing the hygroscopic nature of the sample to be determined. XRPD analysis was then carried out on any solid retained.
Because this equilibration with ambient humidity is rapid, calculation or use of sufficiently accurate assay results on Form A material must take into account its current water content.

[3] = Thermogravimetric Analysis/Dynamic Temperature Analysis (TGA/DTA); conditions: for TGA wt. loss: from the onset to about 210° C., heating 10° C./min
Description: Approximately 5-10 mg of material was weighed into an open aluminum pan and loaded into a TA Instruments SDT650 and held at room temperature. The sample was then heated at a rate of 10° C./min from 30° C. to 350° C. during which time the change in sample weight was recorded along with the heat flow response (DSC). Nitrogen was used as the purge gas, at a flow rate of 100 cm^3/min for both the sample and balance purges.

[4] = FaSSGF, after approximately 7.5 h at 37° C.
[5] = FaSSGF, after approximately 25 h at 37° C.
[6] = FaSSIF, after approximately 7.5 h at 37° C.
[7] = FaSSIF, after approximately 25 h at 37° C.
[8] = FeSSIF, after approximately 7.5 h at 37° C.
[9] = FeSSIF, after approximately 25 h at 37° C.
[10] = pH 6.1 media, after approximately 7.5 h at 37° C.
[11] = pH 6.1 media, after approximately 25 h at 37° C.
[12] = pH 6.8 media, after approximately 7.5 h at 37° C.
[13] = pH 6.8 media, after approximately 25 h at 37° C.
[14] = FaSSGF, approximately 7.5 h at 37° C.
[15] = FaSSGF, approximately 25 h at 37° C.
[16] = FeSSIF, approximately 7.5 h at 37° C.
[17] = FeSSIF, approximately 25 h at 37° C.
[18] = pH 6.1 media, approximately 25 h at 37° C.
[19] = pH 6.8 media, approximately 25 h at 37° C.

Row | Compound | Average Concentration [1, 4] [µg/mL] | Average Concentration [1, 5] [µg/mL] | Average Concentration [1, 6] [µg/mL] | Average Concentration [1, 7] [µg/mL] | Average Concentration [1, 8] [µg/mL] | Average Concentration [1, 9] [µg/mL] | Average Concentration [1, 10] [µg/mL] | Average Concentration [1, 11] [µg/mL] | Average Concentration [1, 12] [µg/mL] | Average Concentration [1, 13] [µg/mL] | TGA wt. loss [3] [% wt.] | further results
1 | CCCCCCC(C)(C)c1cc(O)c2c(c1)OC(C)(C)[C@@H]1CC=C(C(=O)O)C[C@@H]21 [crystal form A, (6aR,10aR)-1-hydroxy-6,6-dimethyl-3-(2-methyl-2-octanyl)-6a,7,10,10a-tetrahydro-6H-benzo[c]chromene-9-carboxylic acid] | 0.2 | 0.2 | 1063 | 391 | 335 | 227 | 3.0 | 2.0 | 18 | 14 | 0.7 | Form by XRPD Dry [1, 14]: A + trace B; Form by XRPD Dry [1, 15]: B + A; Form by XRPD Dry [1, 16]: A*; Form by XRPD Dry [1, 17]: (X) +; Form by XRPD Dry [1, 18]: A +; Form by XRPD Dry [1, 19]: A*; Form by XRPD Wet [1, 14]: A + trace B; Form by XRPD Wet [1, 15]: A + B; Form by XRPD Wet ([1]; FaSSIF, approximately 25 h at 37° C.): B +; Form by XRPD Wet [1, 16]: A*; Form by XRPD Wet [1, 17]: (X) +; Form by XRPD Wet [1, 18]: A + B; Form by XRPD Wet [1, 19]: A*; uptake of water by weight ([2]; at 90% RH, similar DVS studies): about 3.5%; TGA wt. loss ([3]; listed as Crystal Form A): 0.7 % wt.
2 | CCCCCCC(C)(C)c1cc(O)c2c(c1)OC(C)(C)[C@@H]1CC=C(C(=O)O)C[C@@H]21 [crystal form B, (6aR,10aR)-1-hydroxy-6,6-dimethyl-3-(2-methyl-2-octanyl)-6a,7,10,10a-tetrahydro-6H-benzo[c]chromene-9-carboxylic acid] | 0.3 | 0.4 | 242 | 266 | 684 | 696 | 1.2 | 0.1 | 4.3 | 2.0 | 0.9 | water uptake ([2]; at 90% RH, 25° C.): circa 1 wt %; hygroscopic nature by DVS ([2]; ramping 40 to 90% RH, 25° C.): slightly hygroscopic; Post-DVS XRPD analysis ([2]; solid retained after two sorption/desorption cycles): no change in pattern; TGA wt. loss ([3]; listed as Crystal Form B): no significant mass loss; decomposition temperature by TGA/DTA ([3]; heating 10° C./min from 30° C. to 350° C.): ca. 285 °C
